From US20130303533A1, “AZOLOPYRIDINE AND AZOLOPYRIMIDINE COMPOUNDS AND METHODS OF USE THEREOF” (AMBIT BIOSCIENCES CORPORATION, priority 2010, published 2013)

Columns and labels:
JAK3 = molecular target: T1, JAK3 (Homo sapiens, UniProt P52333); experiment: Competition binding assay to determine binding constants (Kd), JAK3
T1 construct: made in house; host or cells: T7 phage display or HEK-293 cells (alternatives)
T1 sequence (P52333 1-1124): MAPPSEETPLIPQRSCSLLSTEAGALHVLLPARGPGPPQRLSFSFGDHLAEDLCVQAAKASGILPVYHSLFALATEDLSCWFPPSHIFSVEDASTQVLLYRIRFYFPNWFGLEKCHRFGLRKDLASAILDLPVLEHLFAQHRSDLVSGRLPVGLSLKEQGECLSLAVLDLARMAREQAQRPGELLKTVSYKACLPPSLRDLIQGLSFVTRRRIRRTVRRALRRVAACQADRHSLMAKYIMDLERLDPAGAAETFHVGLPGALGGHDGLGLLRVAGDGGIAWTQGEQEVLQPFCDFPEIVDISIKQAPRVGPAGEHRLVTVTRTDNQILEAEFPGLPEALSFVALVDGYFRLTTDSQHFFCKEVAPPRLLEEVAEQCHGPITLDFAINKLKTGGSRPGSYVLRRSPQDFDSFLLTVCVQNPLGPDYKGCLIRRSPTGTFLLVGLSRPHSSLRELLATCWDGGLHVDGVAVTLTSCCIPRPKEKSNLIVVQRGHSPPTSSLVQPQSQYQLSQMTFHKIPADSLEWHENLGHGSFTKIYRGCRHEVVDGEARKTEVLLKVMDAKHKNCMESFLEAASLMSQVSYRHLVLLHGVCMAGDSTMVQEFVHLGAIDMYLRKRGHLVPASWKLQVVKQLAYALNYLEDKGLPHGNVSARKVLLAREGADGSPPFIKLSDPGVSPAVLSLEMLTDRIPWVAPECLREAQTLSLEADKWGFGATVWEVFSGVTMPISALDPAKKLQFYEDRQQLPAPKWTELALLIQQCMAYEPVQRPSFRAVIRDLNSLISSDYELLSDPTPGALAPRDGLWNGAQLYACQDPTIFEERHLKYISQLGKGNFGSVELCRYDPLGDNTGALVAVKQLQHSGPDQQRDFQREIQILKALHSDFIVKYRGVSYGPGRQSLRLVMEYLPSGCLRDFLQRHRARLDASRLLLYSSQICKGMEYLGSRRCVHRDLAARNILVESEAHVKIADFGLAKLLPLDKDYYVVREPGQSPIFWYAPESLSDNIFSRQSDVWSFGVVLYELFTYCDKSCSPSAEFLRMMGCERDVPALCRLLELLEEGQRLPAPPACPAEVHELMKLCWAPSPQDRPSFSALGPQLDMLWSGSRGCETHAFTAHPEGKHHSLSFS
Text: (§1) Competition Binding Assay to Determine Binding Constants (Kd) of the Compounds Against JAK Kinases
(§2) Competition binding assays used herein were developed, validated and performed as described in Fabian et al., Nature Biotechnology 2005, 23, 329-336. Kinases were produced as fusions to T7 phage (See, Fabian et al. or WO04/015142) or alternatively, the kinases were expressed in HEK-293 cells and subsequently tagged with DNA for PCR detection (See, WO08/005,310). For the binding assays, streptavidin-coated magnetic beads were treated with biotinylated affinity ligands for 30 min at rt to generate affinity resins. The liganded beads were blocked with excess biotin and washed with blocking buffer (SeaBlock (Pierce), 1% BSA, 0.05% Tween 20, 1 mM DTT) to remove unbound ligand and to reduce non-specific binding. Binding reactions were assembled by combining kinase, liganded affinity beads, and test compounds in 1× binding buffer (20% SeaBlock, 0.17×PBS, 0.05% Tween 20, 6 mM DTT). Test compounds were prepared as 100× stocks in DMSO and rapidly diluted into the aqueous environment. DMSO was added to control assays lacking a test compound. Primary screen interactions were performed in polypropylene 384-well plates in a final volume of 34 μL, while Kd determinations were performed in polystyrene 96-well plates in a final volume of 135 μL. The assay plates were incubated at room temperature with shaking for 1 hour, long enough for binding reactions to reach equilibrium, and the affinity beads were washed extensively with wash buffer (1×PBS, 0.05% Tween 20) to remove unbound protein. The beads were then resuspended in elution buffer (1×PBS, 0.05% Tween 20, 2 μM non-biotinylated affinity ligand) and incubated at room temperature with shaking for 30 min. The kinase concentration in the eluates was measured by quantitative PCR. Each kinase was tested individually against each compound. Kds were determined using eleven serial threefold dilutions. A selectivity score, which is a quantitative measure of selectivity of a compound against a panel of enzymes, may be calculated for a compound by dividing the number of enzymes for which a compound meets a set criteria, (for example, a binding constant of 100 nM or less), by the total number of enzymes tested.

TYK2 = molecular target: T2, TYK2 (Homo sapiens, UniProt P29597); experiment: Competition binding assay to determine binding constants (Kd), TYK2
T2 construct: made in house; host or cells: T7 phage display or HEK-293 cells (alternatives)
Text: as §1, §2

[1] = test system: GM-CSFR/JAK2/STAT5 pathway; experiment: CSTF-1 cell-based reporter assay; conditions: Homo sapiens; csTF-1 cells, GM-CSF at 2 ng/mL, 4 hours, beta-lactamase reporter; read-out: Cell Assay: CS TF-1 reporter assay IC50
Experimental: CSTF-1 Cell-Based Reporter Assay
CSTF-1 cells are derived from the human erythroleukemia cell line that is growth dependent on GM-CSF and has an intact GM-CSFR/JAK2/STAT5 pathway. The cell line contains stably integrated beta-lactamase reporter gene under the control of the […] (irf 1) response element recognized by the activated transcription factor STAT5. csTF-1 cells (Invitrogen K1219) were washed with assay media (97% OPTIMEM/0.5% dialyzed FBS/0.1 mM NEAA/1 mM Na pyr/P/S) and seeded in the same media at 5×10^5 cell/mL in T150 flask. After 16 hour incubation, cells were seeded at 2×10^5 cell/well in 50 μl volume, into Costar, clear bottom, 96-well assay plates. Serial dilutions of compounds were added to the plates with final DMSO concentration at 0.5% and GM-CSF at 2 ng/mL and the plates were then incubated at 30° C. and 5% CO2 for 4 hours. The plates were brought to room temperature before adding Substrate Mixture according to manufacturer's protocol (Invitrogen, Catalog #K1085). The assay plates containing the substrate mixture were incubated in the dark at room temperature for 2 hours. Blue and green fluorescence was measured with excitation at 409 nm and emission at 460 nm (for blue) and excitation at 409 nm and emission at 530 nm (for green) using Spectra Max Gemini EM.

JAK2 = molecular target: T3, JAK2 (Homo sapiens, UniProt O60674); experiment: Competition binding assay to determine binding constants (Kd), JAK2
T3 construct: made in house; host or cells: T7 phage display or HEK-293 cells (alternatives)
Text: as §1, §2

T3 sequence (O60674 whole entry): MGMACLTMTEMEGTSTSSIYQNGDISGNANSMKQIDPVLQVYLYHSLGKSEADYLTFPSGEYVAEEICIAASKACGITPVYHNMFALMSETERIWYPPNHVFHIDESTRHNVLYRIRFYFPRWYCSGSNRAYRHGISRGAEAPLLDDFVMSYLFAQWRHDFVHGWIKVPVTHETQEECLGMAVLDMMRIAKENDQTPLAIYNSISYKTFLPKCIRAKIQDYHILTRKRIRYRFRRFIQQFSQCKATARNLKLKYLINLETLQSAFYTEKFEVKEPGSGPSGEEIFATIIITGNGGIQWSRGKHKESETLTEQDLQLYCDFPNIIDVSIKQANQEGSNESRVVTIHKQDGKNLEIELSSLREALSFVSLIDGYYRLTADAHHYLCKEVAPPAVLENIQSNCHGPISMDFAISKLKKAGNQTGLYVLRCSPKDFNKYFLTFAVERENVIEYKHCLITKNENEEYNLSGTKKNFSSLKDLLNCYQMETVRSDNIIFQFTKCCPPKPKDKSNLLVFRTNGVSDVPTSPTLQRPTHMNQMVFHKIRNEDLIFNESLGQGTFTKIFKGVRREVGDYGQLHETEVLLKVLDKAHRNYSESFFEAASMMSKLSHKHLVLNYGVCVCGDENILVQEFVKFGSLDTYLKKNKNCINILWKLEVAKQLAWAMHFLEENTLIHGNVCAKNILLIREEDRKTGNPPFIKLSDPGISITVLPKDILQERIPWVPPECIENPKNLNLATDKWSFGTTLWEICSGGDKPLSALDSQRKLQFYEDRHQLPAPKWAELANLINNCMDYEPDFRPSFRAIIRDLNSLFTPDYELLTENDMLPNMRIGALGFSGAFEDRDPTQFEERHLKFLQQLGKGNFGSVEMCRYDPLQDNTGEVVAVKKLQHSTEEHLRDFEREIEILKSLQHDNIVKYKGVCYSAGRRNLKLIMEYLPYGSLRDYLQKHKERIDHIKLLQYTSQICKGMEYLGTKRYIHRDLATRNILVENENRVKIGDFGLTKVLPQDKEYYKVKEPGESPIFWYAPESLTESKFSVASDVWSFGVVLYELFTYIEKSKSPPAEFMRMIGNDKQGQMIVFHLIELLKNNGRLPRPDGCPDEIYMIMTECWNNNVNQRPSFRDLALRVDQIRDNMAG
T2 sequence (P29597 whole entry): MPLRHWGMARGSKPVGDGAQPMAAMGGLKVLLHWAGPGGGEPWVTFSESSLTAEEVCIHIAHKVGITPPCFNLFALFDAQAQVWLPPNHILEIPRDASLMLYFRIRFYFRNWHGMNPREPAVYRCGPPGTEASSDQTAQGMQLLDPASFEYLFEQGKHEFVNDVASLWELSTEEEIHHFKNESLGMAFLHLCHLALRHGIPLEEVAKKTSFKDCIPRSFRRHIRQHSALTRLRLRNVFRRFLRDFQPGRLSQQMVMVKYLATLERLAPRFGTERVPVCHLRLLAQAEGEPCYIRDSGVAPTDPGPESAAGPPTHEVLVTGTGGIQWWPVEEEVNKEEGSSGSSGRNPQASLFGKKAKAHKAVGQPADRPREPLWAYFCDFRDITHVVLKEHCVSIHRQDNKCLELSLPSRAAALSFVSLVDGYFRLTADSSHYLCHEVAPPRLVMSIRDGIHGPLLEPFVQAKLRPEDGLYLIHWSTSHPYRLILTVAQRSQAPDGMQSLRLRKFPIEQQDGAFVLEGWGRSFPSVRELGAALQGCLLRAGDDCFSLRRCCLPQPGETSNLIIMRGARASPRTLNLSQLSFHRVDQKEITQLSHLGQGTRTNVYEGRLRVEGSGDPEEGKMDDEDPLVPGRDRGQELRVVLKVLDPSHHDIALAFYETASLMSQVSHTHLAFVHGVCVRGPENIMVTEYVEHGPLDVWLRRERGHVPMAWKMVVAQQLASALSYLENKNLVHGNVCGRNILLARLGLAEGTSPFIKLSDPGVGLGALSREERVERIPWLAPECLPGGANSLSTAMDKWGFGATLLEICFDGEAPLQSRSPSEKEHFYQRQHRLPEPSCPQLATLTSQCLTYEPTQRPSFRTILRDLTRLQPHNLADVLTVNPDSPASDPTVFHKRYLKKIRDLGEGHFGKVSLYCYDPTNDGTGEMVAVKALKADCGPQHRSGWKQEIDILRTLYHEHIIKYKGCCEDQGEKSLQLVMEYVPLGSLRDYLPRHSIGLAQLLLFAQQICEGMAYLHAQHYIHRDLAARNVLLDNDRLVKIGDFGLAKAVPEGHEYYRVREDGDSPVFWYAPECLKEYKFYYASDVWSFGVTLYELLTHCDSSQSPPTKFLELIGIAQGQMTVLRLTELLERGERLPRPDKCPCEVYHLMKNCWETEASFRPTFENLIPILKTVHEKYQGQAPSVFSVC

SMILES | Kd (JAK3) [nM] | Kd (TYK2) [nM] | IC50 [1] [nM] | Kd (JAK2) [nM]
Cc1cc(Nc2nc(C(F)(F)c3ccc(F)cc3)nc3[nH]ncc23)n[nH]1 [Example 30, 6-(difluoro(4-fluorophenyl)methyl)-N-(5-methyl-1H-pyrazol-3-yl)-1H-pyrazolo[3,4-d]pyrimidin-4-amine] | 10 to 100 | ≤ 10 | ≤ 100 | ≤ 1
CSc1nc2nc(C(F)(F)c3ccc(F)cc3)nc(Nc3cc(C)[nH]n3)c2s1 [Example 35, 5-(difluoro(4-fluorophenyl)methyl)-N-(5-methyl-1H-pyrazol-3-yl)-2-(methylthio)thiazolo[4,5-d]pyrimidin-7-amine] | 10 to 100 | ≤ 10 | 100 to 500 | 1 to 10
Cc1cc(Nc2nc(C(O)c3ccc(F)cc3)nc3nn(C)cc23)n[nH]1 (racemic) [Example 22, (R,S)-(4-fluorophenyl)(2-methyl-4-(5-methyl-1H-pyrazol-3-ylamino)-2H-pyrazolo[3,4-d]pyrimidin-6-yl)methanol] | 10 to 100 | ≤ 10 | 100 to 500 | ≤ 1
Cn1ccc2c(Nc3cc[nH]n3)nc([S+]([O-])c3ccc(F)cc3)nc21 (racemic) [Example 5, (R,S)-2-(4-fluorophenylsulfinyl)-7-methyl-N-(1H-pyrazol-3-yl)-7H-pyrrolo[2,3-d]pyrimidin-4-amine] | 10 to 100 | ≤ 10 | ≤ 100 | ≤ 1
Cc1cc(Nc2nc(C(F)(F)c3ccc(F)cc3)nc3nc(N4CCCC4)sc23)n[nH]1 [Example 36, 5-(difluoro(4-fluorophenyl)methyl)-N-(5-methyl-1H-pyrazol-3-yl)-2-(pyrrolidin-1-yl)thiazolo[4,5-d]pyrimidin-7-amine] | 10 to 100 | ≤ 10 | 100 to 500 | ≤ 1
C=Cn1ncc2c(Nc3cc(C)[nH]n3)nc(C(F)(F)c3ccc(F)cc3)nc21 [Example 33, 6-(difluoro(4-fluorophenyl)methyl)-N-(5-methyl-1H-pyrazol-3-yl)-1-vinyl-1H-pyrazolo[3,4-d]pyrimidin-4-amine] | 10 to 100 | 10 to 100 | 100 to 500 | 1 to 10

Now from value to compound:

Kd (JAK3) [nM] | Kd (TYK2) [nM] | IC50 [1] [nM] | Kd (JAK2) [nM] | SMILES
≤ 10 | ≤ 10 | ≤ 100 | ≤ 1 | CCn1ccc2c(Nc3cc[nH]n3)nc(S(=O)(=O)c3ccc(F)cc3)nc21 [Example 8, 7-ethyl-2-(4-fluorophenylsulfonyl)-N-(1H-pyrazol-3-yl)-7H-pyrrolo[2,3-d]pyrimidin-4-amine]
≤ 10 | ≤ 10 | ≤ 100 | ≤ 1 | COCCn1ccc2c(Nc3cc[nH]n3)nc(S(=O)(=O)c3ccc(F)cc3)nc21 [Example 12, 2-(4-fluorophenylsulfonyl)-7-(2-methoxyethyl)-N-(1H-pyrazol-3-yl)-7H-pyrrolo[2,3-d]pyrimidin-4-amine]
≤ 10 | ≤ 10 | 100 to 500 | ≤ 1 | CN(C)C(=O)Cn1ccc2c(Nc3cc[nH]n3)nc(S(=O)(=O)c3ccc(F)cc3)nc21 [Example 16, 2-(4-(1H-pyrazol-3-ylamino)-2-(4-fluorophenylsulfonyl)-7H-pyrrolo[2,3-d]pyrimidin-7-yl)-N,N-dimethylacetamide]
≤ 10 | ≤ 10 | ≤ 100 | 1 to 10 | Cc1cc(Nc2nc(C(F)(F)c3ccc(F)cc3)nc3nc(N4CCN(C)CC4)sc23)n[nH]1 [Example 38, 5-(difluoro(4-fluorophenyl)methyl)-N-(5-methyl-1H-pyrazol-3-yl)-2-(4-methylpiperazin-1-yl)thiazolo[4,5-d]pyrimidin-7-amine]
≤ 10 | ≤ 10 | ≤ 100 | ≤ 1 | Cn1ccc2c(Nc3cc[nH]n3)nc(S(=O)(=O)c3ccc(F)cc3)nc21 [Example 6, 2-(4-fluorophenylsulfonyl)-7-methyl-N-(1H-pyrazol-3-yl)-7H-pyrrolo[2,3-d]pyrimidin-4-amine]
≤ 10 | ≤ 10 | ≤ 100 | ≤ 1 | Cc1cc(Nc2nc(S(=O)(=O)c3ccc(F)cc3)nc3[nH]ccc23)n[nH]1 [Example 4, 2-(4-fluorophenylsulfonyl)-N-(5-methyl-1H-pyrazol-3-yl)-7H-pyrrolo[2,3-d]pyrimidin-4-amine]
